Key:
Rhinovirus = experiment: Antiviral assay: virus yield reduction measured by plaque assay in infected cells; type: cell-based
Excerpt: (§1) Representative viruses of the Rhinovirus and Enterovirus genera were chosen for study: Rhinovirus 2 (RV2), Rhinovirus 14 (RV14), Coxsackievirus […] (CVB3) and Echovirus 11 (EV11). Each virus is propogated in two different cell lines as follows: RV2 and RV14 in HEL and HeLa cells, CVB3 in BS-C-1 and HeLa (human cervical adenocarcinoma) cells, EV11 in BS-C-1 (African green monkey kidney, primary) and HEL (human embryonic lung, primary) cells. Propogation of virus strains in two different cell lines is performed as different cell types may utilize different ion transport pathways.
(§2) Antiviral assays are determined as follows. Monolayers of HeLa T cells (human cervical adenocarcinoma) in 12-well plates are infected with 0.01 plaque forming units per cell of Rhinovirus 2 in minimum essential medium with Earle's salts (MEM) supplemented with 1% v/v fetal bovine serum (FBS) or mock-infected with medium for 1 hour. […] Cells are further incubated for 70 hours at 34° C., until extensive cell death is observed in the no drug control. Cells plus culture supernatants are freeze-thawed and virus titre in each sample is determined by plaque assay.

Enterovirus = experiment: as above; type: cell-based
Excerpt: as §1, §2

HeLa cells = experiment: Cytotoxicity on uninfected cells, Alamar Blue metabolic activity; conditions: uninfected HeLa T cells, 70 hours at 34° C.

Compound | effectiveness against Rhinovirus (Rhinovirus) | effectiveness against Enterovirus (Enterovirus) | toxicity to HeLa cells compared to the inhibition of virus production (HeLa cells)
COc1ccc(CCN(C)CCCC(C#N)(c2ccc(OC)c(OC)c2)C(C)C)cc1OC (centres unmarked) [Verapamil] | particularly effective | – | –
N=C(N)NC(=O)c1nc(Cl)c(N)nc1N [Amiloride] | – | particularly effective | –
N=C(NCc1ccccc1)NC(=O)c1nc(Cl)c(N)nc1N [Benzamil] | – | particularly effective | –
CCN(c1nc(N)c(C(=O)NC(=N)N)nc1Cl)C(C)C [EIPA, 5-(N-ethyl-N-isopropyl)amiloride] | particularly effective | – | far less toxic
